Measurements as given in patent publication US12691103B2 (Jinan University, priority 2022, dated 2026).
Where a name gives a salt, the structure may show the parent alone. Ends that are not written are not given here.

Tests used:
[1] = test system: men with oligospermia with hypogonadism; details: cited from earlier work
[2] = test system: patients with oligospermia; details: GnRH supplementation; cited from earlier work
busulfan-modeled mice = details: model group, busulfan 30 mg/kg single intraperitoneal injection; compared with the control group
Method: The Kunming mice are injected intraperitoneally with busulfan (30 mg/kg). An average weight of the mice is 27 grams (g). Each mouse is injected with 0.8 mg busulfan. A total of 40 mice are modeled.
After one week of modeling the mice, the average weight of the experimental mice is grams (g). […] The control group and the model group are injected with the equivalent amount of physiological saline.
After the mice are anesthetized and sacrificed, the left epididymal tail is immediately removed for semen analysis. The left testis is stored at −80° C., and the parameters such as protein and messenger ribonucleic acid (mRNA) expression are detected. The right testis and right epididymis are fixed with 4% paraformaldehyde for further histological analysis.
(2) Staining with hematoxylin: the soaked sections are taken out and dried, a hematoxylin staining solution is added to cover the tissue and stained for 3 minutes.
(3) Differentiation: a differentiation solution is dropped at the sections, after 5-6 seconds (s), when observing that the color has faded, the section can be rinsed with the ultrapure water.
(4) Bluing: hematoxylin bluing solution is dropped at the section, after 5-6 seconds, when observing the color blue, the sections can be rinsed with the ultrapure water. […]

[3] = after administration (oral); cited from earlier work

For CCN(CC)CCOc1ccc(C(=C(Cl)c2ccccc2)c2ccccc2)cc1 [clomiphene citrate], the “bone mineral density of patients” value ([1]; 12-month treatment) is listed as “significantly reduce” and the “usefulness in men with oligospermia with hypogonadism” value ([1]; in vivo) is listed as “proven to be useful”.

For “GnRH: gonadotropin-releasing hormone supplementation (QHWSYGLRPG; ends and bridges not checked; UniProt P01148 24-33, looked up)”, the “patients who succeed in spermatogenesis” value [2] is given as 77%.

For CS(=O)(=O)OCCCCOS(C)(=O)=O [busulfan], the “structure of seminiferous tubules (HE staining of testes)” value (busulfan-modeled mice) was “severely damages”.

In the case of Nc1nc2ccc(OC(F)(F)F)cc2s1 [riluzole, 2-amino-6-trifluomethoxy-benzothiazole], the “time to peak of blood concentration” value [3] is given as 60 to 90 min.
